# Source: US7871982B2, “Lincomycin derivatives and antimicrobial agents comprising the same as active ingredient” (Meiji Seika Kaisha, Ltd., priority 2005, dated 2011)
# Tests used:
# Assay in all cases: Antimicrobial activity, MIC against pneumococci (agar dilution)
# Format in all cases: cell-based
# S. pneumoniae 1820 = details: sensitivity disk agar-N+5% horse blood, inoculum 10^6 CFU/ml; for MIC: Streptococcus pneumoniae, read-out: minimal inhibitory concentration (MIC)
# Procedure: (§1) For representative compounds among lincomycin derivatives according to the present invention, the minimal inhibitory concentration (MIC, μg/ml) against various pneumococci was measured according to the method described in CHEMOTHERAPY, vol. 16, No. 1, 99, 1968. Sensitivity disk agar-N+5% horse blood was used as the medium for the measurement. The amount of bacteria inoculated was 10^6 CFU/ml.
# S. pneumoniae 1913 = details: sensitivity disk agar-N+5% horse blood, inoculum 10^6 CFU/ml; for MIC: Streptococcus pneumoniae, read-out: minimal inhibitory concentration (MIC)
# Procedure: as §1
# S. pneumoniae 225 = details: sensitivity disk agar-N+5% horse blood, inoculum 10^6 CFU/ml; for MIC: Streptococcus pneumoniae, read-out: minimal inhibitory concentration (MIC)
# Procedure: as §1
# S. pneumoniae DPI Type[…] = details: for minimal inhibitory concentration (MIC): S. pneumoniae DPI Type[…], sensitivity disk agar-N+5% horse blood, inoculum 10^6 CFU/ml; for MIC: Streptococcus pneumoniae, read-out: minimal inhibitory concentration (MIC)
# Procedure: as §1
# S. pneumoniae IP692 = details: sensitivity disk agar-N+5% horse blood, inoculum 10^6 CFU/ml; for MIC: Streptococcus pneumoniae, read-out: minimal inhibitory concentration (MIC)
# Procedure: as §1
# S. pneumoniae PRC-206 = details: inoculum 10^6 CFU/ml; for minimal inhibitory concentration (MIC): sensitivity disk agar-N+5% horse blood; for MIC: Streptococcus pneumoniae, PRC206, sensitivity disk agar-N+5% horse blood, read-out: minimal inhibitory concentration (MIC)
# Procedure: as §1
# S. pneumoniae PRC-53 = details: inoculum 10^6 CFU/ml; for minimal inhibitory concentration (MIC): sensitivity disk agar-N+5% horse blood; for MIC: Streptococcus pneumoniae, PRC53, sensitivity disk agar-N+5% horse blood, read-out: minimal inhibitory concentration (MIC)
# Procedure: as §1
# S. pneumoniae PRC0-91 = details: inoculum 10^6 CFU/ml; for minimal inhibitory concentration (MIC): sensitivity disk agar-N+5% horse blood
# Procedure: as §1
# S. pneumoniae TH-96 = details: inoculum 10^6 CFU/ml; for minimal inhibitory concentration (MIC): sensitivity disk agar-N+5% horse blood; for MIC: Streptococcus pneumoniae, TH96, sensitivity disk agar-N+5% horse blood, read-out: minimal inhibitory concentration (MIC)
# Procedure: as §1
# S. pneumoniae TH-662 = details: inoculum 10^6 CFU/ml; for minimal inhibitory concentration (MIC): sensitivity disk agar-N+5% horse blood; for MIC: Streptococcus pneumoniae, TH662, sensitivity disk agar-N+5% horse blood, read-out: minimal inhibitory concentration (MIC)
# Procedure: as §1
SMILES,minimal inhibitory concentration (MIC) (S. pneumoniae 1820) [µg/mL],minimal inhibitory concentration (MIC) (S. pneumoniae 1913) [µg/mL],minimal inhibitory concentration (MIC) (S. pneumoniae 225) [µg/mL],minimal inhibitory concentration (MIC) (S. pneumoniae DPI Type[…]) [µg/mL],minimal inhibitory concentration (MIC) (S. pneumoniae IP692) [µg/mL],minimal inhibitory concentration (MIC) (S. pneumoniae PRC-206) [µg/mL],minimal inhibitory concentration (MIC) (S. pneumoniae PRC-53) [µg/mL],minimal inhibitory concentration (MIC) (S. pneumoniae PRC0-91) [µg/mL],minimal inhibitory concentration (MIC) (S. pneumoniae TH-96) [µg/mL],minimal inhibitory concentration (MIC) (S. pneumoniae TH-662) [µg/mL],MIC (S. pneumoniae 1820) [µg/mL],MIC (S. pneumoniae 1913) [µg/mL],MIC (S. pneumoniae 225) [µg/mL],MIC (S. pneumoniae DPI Type[…]) [µg/mL],MIC (S. pneumoniae IP692) [µg/mL],MIC (S. pneumoniae PRC-206) [µg/mL],MIC (S. pneumoniae PRC-53) [µg/mL],"MIC (S. pneumoniae PRC0-91; Streptococcus pneumoniae, PRC091, sensitivity disk agar-N+5% horse blood, read-out: minimal inhibitory concentration (MIC)) [µg/mL]",MIC (S. pneumoniae TH-662) [µg/mL],MIC (S. pneumoniae TH-96) [µg/mL]
"CCC[C@@H]1C[C@@H](C(=O)N[C@@H]([C@H]2O[C@H](SC)[C@H](O)[C@@H](O)[C@H]2O)[C@H](C)Sc2ccc(NC(=O)CC)cn2)N(C)C1 [Compound 191, 7-Deoxy-7-epi-7-(5-(propionamido)pyridin-2-ylthio)-lincomycin]",4,0.015,32,0.015,0.015,8,0.03,2,0.03,–,–,–,–,–,–,–,–,–,–,–
"CCC[C@@H]1C[C@@H](C(=O)N[C@@H]([C@H]2O[C@H](SC)[C@H](O)[C@@H](O)[C@H]2O)[C@H](C)Sc2ccc(C(=O)N3CCCC3)cc2)N(C)C1 [Compound 228, 7-Deoxy-7-epi-7-(4-(pyrrolidino-carbonyl)phenylthio)lincomycin]",4,0.13,16,0.13,0.06,4,0.06,2,–,2,–,–,–,–,–,–,–,–,–,–
"CC[C@@H]1CCN(C)[C@H](C(=O)N[C@@H]([C@H]2O[C@H](SC)[C@H](O)[C@@H](O)[C@H]2O)[C@H](C)Sc2nnc(-c3ccc(F)cc3[N+](=O)[O-])s2)C1 [Compound 396, Methyl 7-deoxy-7-epi-7-(5-(4-fluoro-2-nitrophenyl)-1,3,4-thiadiazol-2-ylthio)-6-N-((2S,4R)-1-N-methyl-4-ethyl)pipecoloyl-1-thio-α-lincosamide]",16,0.008,>128,0.015,0.008,64,0.015,4,0.015,8,–,–,–,–,–,–,–,–,–,–
"CCCC1CC(C(=O)NC(C(C)Sc2nnc(NC(=O)COC)s2)C2OC(SC)C(O)C(O)C2O)N(C)C1 (stereo not drawn) [Compound 195, 7-Deoxy-7-epi-7-(5-(2-methoxyacetamido)-1,3,4-thiadiazol-2-ylthio)lincomycin]",16,0.13,64,0.06,0.03,64,0.06,8,0.06,8,–,–,–,–,–,–,–,–,–,–
"CCC[C@@H]1C[C@@H](C(=O)N[C@H](C2OC(SC)C(O)C(O)C2O)[C@@H](C)Sc2ccc(-c3cccnc3[N+](=O)[O-])cc2)N(C)C1 (stereo partly drawn) [Compound 446, 7-Deoxy-7-epi-7-(4-(2-nitropyridin-3-yl)phenylthio)-lincomycin]",–,–,–,–,–,–,–,–,–,–,4,0.03,64,0.03,0.03,8,0.015,4,2,0.015
"CCCC1CC(C(=O)NC(C(C)Sc2ccc(N(C)C(=O)COC)cc2)C2OC(SC)C(O)C(O)C2O)N(C)C1 (stereo not drawn) [Compound 170, 7-Deoxy-7-epi-7-(4-(methoxy-N-methylacetamido)phenylthio)-lincomycin]",8,0.13,128,0.13,0.13,16,0.13,8,0.13,8,–,–,–,–,–,–,–,–,–,–
"CCC[C@@H]1C[C@@H](C(=O)N[C@@H](C2OC(SC)C(O)C(O)C2O)[C@H](C)SCc2ccc(C(=O)N3CCCCC3)cc2)N(C)C1 (stereo partly drawn) [Compound 235, 7-Deoxy-7-epi-7-(4-(piperidino-carbonyl)benzylthio)lincomycin]",–,–,–,–,–,–,–,–,–,–,8,0.03,32,0.015,0.015,4,0.03,–,1,0.03
"CCC[C@@H]1CCN[C@H](C(=O)N[C@@H]([C@H]2O[C@H](SC)[C@H](O)[C@@H](O)[C@H]2O)[C@H](C)Sc2ncc(C(=O)OCC)c(N)n2)C1 [Compound 364, Methyl 7-(4-amino-5-ethoxycarbonylpyrimidin-2-ylthio)-7-deoxy-7-epi-6-N-((2S,4R)-4-propyl)pipecoloyl-1-thio-α-lincosamide]",4,0.13,4,0.13,0.13,4,0.03,–,0.06,2,–,–,–,–,–,–,–,–,–,–
"CCC[C@H]1CN[C@H](C(=O)N[C@@H]([C@H]2O[C@H](SC)[C@H](O)[C@@H](O)[C@H]2O)[C@H](C)Sc2nnc(-c3sccc3N)s2)C1 [Compound 304, 7-(5-(3-Aminothiophen-2-yl)-1,3,4-thiadiazol-2-ylthio)-1′-demethyl-7-deoxy-7-epilincomycin]",4,0.13,16,0.13,0.13,4,0.13,2,0.13,2,–,–,–,–,–,–,–,–,–,–
